55 compounds from patent publication US11666644B2, “Peptide vaccines” (TREOS BIO LIMITED, priority 2018, dated 2023) can be followed below.

Assay [1] has as its system HLA class I. Briefly: PEPI3+ Test: 9 mer epitopes binding to at least 3 HLA class I of individuals in the Model Population (n=433). Also on record: species or system human. The following applies: N % (antigen expression frequency in lung cancers) multiplied by B %.
Assay [2] concerns HLA class I. Described as above. Also on record: species or system human. To be noted: B % multiplied by N % (antigen expression frequency in gastric cancers). An excerpt: Predicted binding between particular HLA and epitopes (9 mer peptides) was based on the Immune Epitope Database tool for epitope prediction (iedb.org).
The validated HLA-epitope binding prediction process was used to determine all HLA-epitope binding pairs described in the Examples below.
An in silico human trial cohort of 433 subjects with complete 4-digit HLA class I […] genotype (2×HLA-A*xx:xx; 2×HLA-B*xx:xx; 2×HLA-C*xx:xx) and demographic […] information was compiled. This Model Population has subjects with mixed ethnicity having a total of 152 different HLA alleles that are representative for >85% of presently known allele G-groups.
To select immunogenic peptides from the target CTAs, the PEPI3+ Test and the Model Population described in Example 8 were used to identify the 9 mer epitopes (PEPI3+s) that are most frequently presented by at least 3 HLAs of the individuals in the Model Population. These epitopes are referred to herein as “bestEPIs”. An illustrative example of the “PEPI3+ hotspot” analysis and bestEPI identification is shown in FIG. 15 for the PRAME antigen.
The reported expression frequency for each CTA was multiplied by the frequency of the PEPI3+ hotspots in the Model Population to identify the T cell epitopes (9 mers) that will induce a cytotoxic T cell response against gastric cancer antigens in the highest proportion of individuals (Table 20a). 15 mers were then selected encompassing each of the selected 9 mers (Table 20a). The 15 mers were selected to bind to most HLA class II alleles of most subjects. These 15 mers can induce both CTL and T helper responses in the highest proportion of subjects.

Assay [3] deals with metastatic ovarian adenocarcinoma. Briefly: Patient-A clinical outcome and tumor MRI findings (lesion responses). It counts as in vivo, human. An excerpt: For treatment of Patient-A the 13 peptides were formulated as 4×3 or 4 peptide (POC01/1, POC01/2, POC01/3, POC01/4). One treatment cycle is defined as administration of all 13 peptides within 30 days.
2017-2018: Patient-A received 8 cycles of vaccination as add-on therapy, and lived 17 months (528 days) after start of the treatment. […] They died in October 2018.
Patient's tumor MRI findings (Baseline Apr. 15, 2016) (BL: baseline for tumor response evaluation on FIG. 35)
• Rapid progression in lymph nodes, hepatic, retroperitoneal and thoracic areas, significant pleural fluid and ascites. Initiate Carboplatin, Gemcitabine, Avastin. Sep. […] Nov. […] Remission in hepatic, retroperitoneal area and lymph nodes Apr. 13, 2018: Progression • Complete remission in the thoracic and retroperitoneal regions. Progression in hepatic centers and lymph nodes Jun. […] Minimal regression in hepatic centers and lymph nodes July 2018: Progression October 2018: Patient-A died Partial MRI data for Patient-A is shown in Table 23 and FIG. 35.

With “104 (FVLANGHIL; NY-SAR-35 9mer) [compound 104]”, the “N % * B %” value in the assay on HLA class I [1] is given as 12%. In the case of “15 (STFKNWPFL; SURVIVIN 9mer) [compound 15]”, the “B % * N %” value in the assay with HLA class I [2] is given as 15%. Take `O=C(c1cc(Cc2n[nH]c(=O)c3ccccc23)ccc1F)N1CCN(C(=O)C2CC2)CC1` [Olaparib]: the “FU2 (% Δ from BL)” value in assay [3] (SUM of lesions, Dec. 25, 2016, before PIT vaccine treatment) is given as −76.0%; in assay [3] (lesion TL2, Dec. 25, 2016, before PIT vaccine treatment) it was −100.0%; in assay [3] (lesion TL4, Dec. 25, 2016, before PIT vaccine treatment), −100.0%. Besides, the “FUI (% Δ from BL)” value in assay [3] (lesion TL2, follow up 1, Olaparib treatment May 2016-January 2017) was −100.0%. Besides, the “Best Response Cycle” value in assay [3] (lesion TL2, follow-up time point of best response) was “FU1”; in assay [3] (lesion TL4, follow-up time point of best response) it was “FU2”. For the compound “114 (STFKNWPFL; SURVIVIN 9mer) [compound 114]”, in the assay with HLA class I [1], the “N % * B %” value amounted to 9%.

As to “93 (YSSFVFNLF; NALP4 9mer) [compound 93]”, the “N % * B %” value in the assay with HLA class I [1] worked out at 19%. Still for that read-out and setting: the same measure for 92 (FSWPFQRPV; BRDT 9mer) [compound 92]: 21%. Consider “1 (KMMKRLMTV; MAGE-C1 9mer) [compound 1]”, for which, in the assay on HLA class I [2], the “B % * N %” value was 43%.

“17 (ILNNFPHSI; KK-LC-1 9mer) [compound 17]”: in the assay with HLA class I [2], the “B % * N %” value worked out at 11%. Regarding 4 (YLRLHRHAY; DPPA2 9mer) [compound 4], in the assay on HLA class I [2], the “B % * N %” value is on record as 28%.

Turning to “29 (RALAETSYV; MAGE-A1 9mer) [compound 29]”, in the assay with HLA class I [2], the “B % * N %” value is listed as 5%. Take 9 (LASNHFLYL; 5T4 9mer) [compound 9]: the “B % * N %” value in the assay on HLA class I [2] was 21%. On to “105 (MLAKKHFSY; BRDT 9mer) [compound 105]”, for which the “N % * B %” value in the assay on HLA class I [1] is 11%. For 2 (KMHSLLALM; CAGE-1 9mer) [compound 2], in the assay with HLA class I [2], the “B % * N %” value came out at 33%. The same measure, in the same setting: the same measure for “12 (FAHPRKLLM; MAGE-A2 9mer) [compound 12]”: 17%; for “13 (SSNSTALAL; KK-LC-1 9mer) [compound 13]”: 17%. Take 3 (FSYEQDPTL; TSP50 9mer) [compound 3]: the “B % * N %” value in the assay with HLA class I [2] was determined as 29%. For the compound “102 (LLRHVMNPL; PRAME 9mer) [compound 102]”, in the assay on HLA class I [1], the “N % * B %” value is 13%. On the same count and under the same terms, the same measure for “SEQ ID NO: 111: 9 mer bestEPI of MAGE-C2 within 15 mer SEQ ID NO: 141; printed 'ill' (SVMSSNVSF; MAGE-C2 9mer)”: 9%; for “97 (FAHPRKLLM; MAGE-A2 9mer) [compound 97]”: 15%. On the same count and under the same terms, with “117 (SSNSTALAL; KK-LC-1 9mer) [compound 117]” the figure was 7%; with “103 (KMMKRLMTV; DPPA2 9mer) [compound 103]”, 13%. On to “95 (FVIDSFEEL; NALP4 9mer) [compound 95]”, for which the “N % * B %” value with HLA class I [1] was 17%.

For “118 (FSTSSSLIL; MAGE-C2 9mer) [compound 118]”, the “N % * B %” value with HLA class I [1] is given as 7%. As for “112 (FVQENYLEY; MAGE-A3 9mer) [compound 112]”, the “N % * B %” value in the assay on HLA class I [1] was found to be 9%.

With “108 (FSTTINYTL; MAGE-A2 9mer) [compound 108]”, the “N % * B %” value in the assay on HLA class I [1] was found to be 10%. As for 28 (MTFGRLHRI; SSX1 9mer) [compound 28], the “B % * N %” value in the assay with HLA class I [2] is reported as 7%. For “106 (SVMDLVGSI; LDHC 9mer) [compound 106]”, the “N % * B %” value in the assay with HLA class I [1] is 11%. In the case of “22 (TSYVKVLEY; MAGE-A1 9mer) [compound 22]”, the “B % * N %” value with HLA class I [2] was found to be 8%. For “98 (RAIEQLAAM; SURVIVIN 9mer) [compound 98]”, the “N % * B %” value in the assay with HLA class I [1] worked out at 15%. The same measure, in the same setting: the same measure for “91 (KAMVQAWPF; PRAME 9mer) [compound 91]”: 23%. With “30 (HVMNPLETL; PRAME 9mer) [compound 30]”, the “B % * N %” value with HLA class I [2] amounted to 4%. Same read-out and setting: the same measure for 10 (FLYLPRDVL; 5T4 9mer) [compound 10]: 21%. As to 90 (FAADVRLMF; BRDT 9mer) [compound 90], the “N % * B %” value in the assay with HLA class I [1] amounted to 28%.

With 5 (LQYENSIML; HIWI 9mer) [compound 5], the “B % * N %” value in the assay on HLA class I [2] is 28%.

In the case of 8 (TTMETQFPV; TSP50 9mer) [compound 8], in the assay on HLA class I [2], the “B % * N %” value worked out at 21%. As for “101 (FQDFFPVIF; MAGE-A12 9mer) [compound 101]”, in the assay with HLA class I [1], the “N % * B %” value is 13%. Same read-out and setting: the same measure for “110 (FVYGEPREL; MAGE-C2 9mer) [compound 110]”: 10%. Turning to “6 (RAIEQLAAM; SURVIVIN 9mer) [compound 6]”, in the assay on HLA class I [2], the “B % * N %” value came out at 26%. Consider “119 (RALAETSYV; MAGE-A1 9mer) [compound 119]”, for which the “N % * B %” value with HLA class I [1] is 5%.

In the case of 11 (SSFSSSAPF; 5T4 9mer) [compound 11], the “B % * N %” value in the assay with HLA class I [2] came to 17%. In the case of “94 (RAMEAFNLV; NALP4 9mer) [compound 94]”, the “N % * B %” value with HLA class I [1] was 18%. As to “21 (YEDHFPLLF; MAGE-A10 9mer) [compound 21]”, the “B % * N %” value with HLA class I [2] stood at 8%. Still for that read-out and setting: with “25 (KAMVQAWPF; PRAME 9mer) [compound 25]” the figure was 7%. Same read-out and setting: with “27 (SAFPTTINF; MAGE-A1 9mer) [compound 27]” the figure was 7%.

As to “115 (YLRLHRHAY; DPPA2 9mer) [compound 115]”, the “N % * B %” value in the assay on HLA class I [1] is listed as 9%. Still for that read-out and setting: with “107 (MMDLQHGSL; LDHC 9mer) [compound 107]” the figure was 11%. Take “18 (FVQENYLEY; MAGE-A3 9mer) [compound 18]”: the “B % * N %” value in the assay on HLA class I [2] turned out to be 10%.

As for “109 (MASESLSVM; MAGE-C2 9mer) [compound 109]”, the “N % * B %” value in the assay on HLA class I [1] is 10%. For the compound “14 (STNALIQPV; CAGE-1 9mer) [compound 14]”, the “B % * N %” value with HLA class I [2] turned out to be 16%. On the same count and under the same terms, with 7 (FVASINEGM; HIWI 9mer) [compound 7] the figure was 21%; with “24 (NTDNNLAVY; KK-LC-1 9mer) [compound 24]”, 8%. Same read-out and setting: the same measure for “16 (FSTTINYTL; MAGE-A2 9mer) [compound 16]”: 12%.

On to “99 (YIAQFTSQF; PRAME 9mer) [compound 99]”, for which, in the assay with HLA class I [1], the “N % * B %” value is listed as 14%. In the case of “19 (ITMPFSSPM; LAGE-1 9mer) [compound 19]”, the “B % * N %” value with HLA class I [2] stood at 9%.

For the compound “100 (HVMNPLETL; PRAME 9mer) [compound 100]”, the “N % * B %” value in the assay with HLA class I [1] amounted to 14%.
